In brackets after ≈: the same amount, converted by molar mass. Activity calls are given as the source filed them. No cut-off for these calls is given here. Peptide text beside a SMILES is read from it.
What was measured:
Candida albicans [1] = test: Antifungal activity against fluconazole-resistant Candida albicans ATCC 64550 after overnight incubation by CLSI broth microdilution method; type: functional
[2] = Retention time of the compound at 0.4 mM by HPLC analysis; type: physicochemical; conditions: 400 µM
Candida albicans [3] = test: Antifungal activity against fluconazole-resistant Candida albicans ATCC MYA-573 after overnight incubation by CLSI broth microdilution method; type: functional
Candida albicans [4] = test: Antifungal activity against fluconazole-resistant Candida albicans ATCC 64124 after overnight incubation by CLSI broth microdilution method; type: functional
Candida albicans [5] = test: Antifungal activity against fluconazole-resistant Candida albicans ATCC 96901 after overnight incubation by CLSI broth microdilution method; type: functional
Candida albicans [6] = test: Antifungal activity against fluconazole-resistant Candida albicans ATCC 200955 after overnight incubation by CLSI broth microdilution method; type: functional
Candida albicans [7] = test: Antifungal activity against fluconazole-resistant Candida albicans NUH-K6004 after overnight incubation by CLSI broth microdilution method; type: functional
Candida albicans [8] = test: Antifungal activity against fluconazole-resistant Candida albicans TTSH-CALB01 after overnight incubation by CLSI broth microdilution method; type: functional
Candida albicans [9] = test: Antifungal activity against fluconazole-resistant Candida albicans TTSH-CALB02 after overnight incubation by CLSI broth microdilution method; type: functional
Saccharomyces cerevisiae [10] = test: Induction of membrane permeabilization in Saccharomyces cerevisiae BY4743 assessed as propidium iodide uptake at 23 uM preincubated for 2.5 hrs followed by propidium iodide addition and measured after 20 mins by bright-field and fluorescence microscopic analysis (reference value: 98%); type: functional
Candida albicans [11] = test: Fungicidal activity against fluconazole-resistant Candida albicans ATCC 64550 at 4 times MIC incubated for overnight flowed by replating and measured after 24 hrs; type: functional, organism-based
NHDF = test: Cytotoxicity against NHDF assessed as reduction in cell viability up to 200 uM after 5 days by CellTiter-Glo assay; type: cell-based; conditions: human, 120 h
Saccharomyces cerevisiae [12] = test: Induction of membrane permeabilization in Saccharomyces cerevisiae BY4743 assessed as propidium iodide uptake at 46 uM preincubated for 2.5 hrs followed by propidium iodide addition and measured after 20 mins by bright-field and fluorescence microscopic analysis (reference value: 98%); type: functional
Saccharomyces cerevisiae [13] = test: Growth inhibition of Saccharomyces cerevisiae BY4743 incubated for 16 to 24 hrs; type: functional
Candida albicans [14] = test: Potency index, ratio of omiganan MIC to compound MIC for antifungal activity against fluconazole-resistant Candida albicans ATCC 64550; type: functional
Candida albicans [15] = test: Antifungal activity against fluconazole-susceptible Candida albicans; type: functional

Molecule | MIC (Candida albicans [1]) [µM] | Retention_time [2] [min] | MIC (Candida albicans [3]) [µM] | MIC (Candida albicans [4]) [µM] | MIC (Candida albicans [5]) [µM] | MIC (Candida albicans [6]) [µM] | MIC (Candida albicans [7]) [µM] | MIC (Candida albicans [8]) [µM] | MIC (Candida albicans [9]) [µM] | Activity (Saccharomyces cerevisiae [10]) [%] | Activity (Candida albicans [11]) | Activity (NHDF) | Activity (Saccharomyces cerevisiae [12]) [%] | GI50 (Saccharomyces cerevisiae [13]) [µM] | TGI (Saccharomyces cerevisiae [13]; read-out: GI100) [µM] | Ratio (Candida albicans [14]) | MIC (Candida albicans [15]) [µM]
CCCC[C@H](NC(=O)[C@H](CCCCN)NC(=O)[C@H](CCCC)NC(=O)[C@H](CCCCN)NC(=O)[C@H](CCCC)NC(=O)[C@H](CCCCN)NC(=O)[C@@H](N)CCCC)C(=O)N[C@@H](CCCCN)C(N)=O (HELM PEPTIDE1{[Nle].K.[Nle].K.[Nle].K.[Nle].K.[am]}$$$$V2.0) | 1.56 (≈ 1.53 µg/mL) | 14 | 3.13 (≈ 3.07 µg/mL) | 3.13 (≈ 3.07 µg/mL) | 1.56 (≈ 1.53 µg/mL) | 1.56 (≈ 1.53 µg/mL) | 1.56 (≈ 1.53 µg/mL) | 1.56 (≈ 1.53 µg/mL) | 1.56 (≈ 1.53 µg/mL) | 75 | Active | Non-Toxic | 100 | 5.75 | 5.75 | – | –
H-IKIKIKIK-NH2 | 3.13 | 13.4 | – | – | – | – | – | – | – | – | – | – | – | – | – | 16 | 1.56

Reference: ChEMBL document CHEMBL4229348, “Structure-activity relationship studies of ultra-short peptides with potent activities against fluconazole-resistant Candida albicans” (Eur J Med Chem, 2018)
